The record followed here is US9585388B2, “Synergistically acting ternary antimicrobial mixtures” (SYMRISE AG, priority 2011, dated 2017).

The assay deals with Aspergillus niger ATCC 16404. Description: Test for adequate preservation (European Pharmacopoeia) in O/W emulsion, CFU reduction. The assay is classed as cell-based. To be noted: total concentration used 1 wt % in O/W emulsion, pH 5.5, initial CFU 1200000. From the text:
In case of doubt, antimicrobial efficacy in the sense of this text is present when adequate preservation is established according to the European Pharmacopoeia (ISBN 3-7692-2768-9; Supplement 2001 to the 3rd Edition, page 421-422, chapter 5.1.3). The microbe preferably to be used is preferably Aspergillus niger ATCC16404. For further information on the procedure for testing for antimicrobial efficacy, reference is made in particular to example 1 given below.
Synergistic intensification (of antimicrobial action) is present when the synergy index (SI value) of the test mixture according to Kull (literature: F. C. Kull et al., Applied Microbiology Vol. 9, p. 538-541 (1961); D. C. Steinberg, Cosmetics & Toiletries Vol. 115(11), 59-62 (2000)) gives a value <1. For further information on calculation of the synergy index, reference is again made to example 1 given below. Once again, the microbe preferably to be used for determining the synergy index is the strain of Aspergillus niger stated above.
The test for adequate preservation was carried out according to the European Pharmacopoeia. […]
To determine the potentially synergistically intensified efficacy of ternary mixtures containing 2-phenoxyethanol, 1,2-decanediol and 1,2-hexanediol, the CFU-reducing properties were determined according to the test procedure described in example 1 for the individual substances, for various binary mixtures and for ternary mixtures according to the invention.
The synergy index (SI values) of the ternary mixtures according to the invention and binary mixtures not according to the invention according to Kull (literature: F. C. Kull et al., Applied Microbiology Vol. 9, p. 538-541 (1961); D. C. Steinberg, Cosmetics & Toiletries Vol. 115(11), 59-62 (2000) was calculated using the following equations. SI=Z*D/A+Z*E/B Binary mixtures: SI=Z*D/A+Z*E/B+Z*F/C Ternary mixture: wherein: D, E, F: factor of proportion of the individual constituents (e.g. 70 wt %=factor 0.70) A, B, C: CFU of the individual substances at time point 48 h Z: CFU of the binary/ternary mixture at time point 48 h […]
Regarding `CCCCC(O)CO` (stereo not drawn) [product C, 1,2-hexanediol], the “Aspergillus niger CFU after 48 h” value was determined as 1000000 CFU. For `OCCOc1ccccc1` [product A, 2-phenoxyethanol], the “Aspergillus niger CFU after 48 h” value is 1100000 CFU. In the case of `CCCCCCCCC(O)CO` (stereo not drawn) [product B, 1,2-decanediol] it was 1200000 CFU.
